Test results taken from PubChem BioAssay AID248 (DTP/NCI, 2004).
Several values for one entry are separate records, joined by “and”; a condition that tells them apart may be missing. Equal values may be shown once. Inconclusive results and toxic doses are left out. Rule as the data show it: active = T/C of 150% or more; inactive = T/C below 125%.

Test system: L1210 leukemia ip in BDF1 mice, survival T/C
Assay: NCI In Vivo Anticancer Drug Screen. Data for tumor model L1210 Leukemia (intraperitoneal) in B6D2F1 (BDF1) mice
Details: endpoint: mean survival time, higher = longer survival
Method in brief: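 Read-out is survival time, reported as the treated-group measurement over the vehicle-control measurement.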

[1] = dose: 75.0 mg/kg/injection, schedule: Q01DX009 (ip), vehicle: saline
[2] = dose: 200.0 mg/kg/injection, schedule: Q04DX003 (ip), vehicle: Klucel (hydroxypropylcellulose) (HPC)
[3] = dose: 400.0 mg/kg/injection, schedule: Q04DX003 (ip), vehicle: Klucel (hydroxypropylcellulose) (HPC)
[4] = dose: 50.0 mg/kg/injection, schedule: Q01DX001 (ip), vehicle: saline
[5] = dose: 100.0 mg/kg/injection, schedule: Q01DX001 (ip), vehicle: saline
[6] = dose: 200.0 mg/kg/injection, schedule: Q01DX001 (ip), vehicle: saline
[7] = dose: 400.0 mg/kg/injection, schedule: Q01DX001 (ip), vehicle: saline
[8] = dose: 100.0 mg/kg/injection, schedule: Q01DX009 (ip), vehicle: Klucel (hydroxypropylcellulose) (HPC)
[9] = dose: 100.0 mg/kg/injection, schedule: Q04DX003 (ip), vehicle: Klucel (hydroxypropylcellulose) (HPC)
[10] = dose: 200.0 mg/kg/injection, schedule: Q01DX009 (ip), vehicle: Klucel (hydroxypropylcellulose) (HPC)
[11] = dose: 100.0 mg/kg/injection, schedule: Q01DX001 (ip), vehicle: Klucel (hydroxypropylcellulose) (HPC)
[12] = dose: 200.0 mg/kg/injection, schedule: Q01DX001 (ip), vehicle: Klucel (hydroxypropylcellulose) (HPC)

Measured: T/C

Cc1ccc2c(c1)CN(Cc1ccccc1)CO2
inactive: [1] 89 % of control | dose: 150.0 mg/kg/injection, schedule: Q01DX009 (ip), vehicle: saline 94 % of control | [2] 103 % of control | dose: 300.0 mg/kg/injection, schedule: Q01DX009 (ip), vehicle: saline 102 % of control | [3] 97 % of control

CCCCCCCCCCNCCC(=O)O
inactive: dose: 12.5 mg/kg/injection, schedule: Q01DX001 (ip), vehicle: saline 94 % of control | dose: 25.0 mg/kg/injection, schedule: Q01DX001 (ip), vehicle: saline 94 % of control | dose: 25.0 mg/kg/injection, schedule: Q01DX009 (ip), vehicle: saline 104 % of control | dose: 37.5 mg/kg/injection, schedule: Q01DX009 (ip), vehicle: saline 104 % of control | [4] 100 % of control | dose: 50.0 mg/kg/injection, schedule: Q01DX009 (ip), vehicle: saline 102 % of control | dose: 75.0 mg/kg/injection, schedule: Q01DX001 (ip), vehicle: saline 101 % of control | [1] 88 % of control | [5] 101 % of control | dose: 100.0 mg/kg/injection, schedule: Q01DX009 (ip), vehicle: saline 104 % of control | dose: 150.0 mg/kg/injection, schedule: Q01DX001 (ip), vehicle: saline 94 % of control

CCCCCCCCOc1nccc(N)n1
inactive: dose: 75.0 mg/kg/injection, schedule: Q01DX001 (ip), vehicle: saline with Tween-80 105 % of control

FC(F)(F)c1ccc2c(c1)N(CCCN1CCN(CCOc3ccccc3)CC1)c1ccccc1S2
inactive: dose: 6.25 mg/kg/injection, schedule: Q04DX003 (ip), vehicle: saline 105 % of control | dose: 8.2 mg/kg/injection, schedule: Q04DX003 (ip), vehicle: saline 97 % of control and 98 % of control | dose: 12.5 mg/kg/injection, schedule: Q04DX003 (ip), vehicle: saline 104 % of control | dose: 18.0 mg/kg/injection, schedule: Q04DX003 (ip), vehicle: saline 101 % of control and 102 % of control

CC(=O)C[n+]1ccccc1Br
inactive: dose: 62.0 mg/kg/injection, schedule: Q01DX015 (ip), vehicle: water 87 % of control | dose: 125.0 mg/kg/injection, schedule: Q01DX015 (ip), vehicle: water 100 % of control

CC(O)CN(Cc1c(O)ccc2ccccc12)CC(C)OS(C)(=O)=O (centres undefined)
inactive: [5] 97 % of control | [6] 93 % of control | [7] 95 % of control

O=Nc1cc(-c2nccc3ccccc23)[nH]c1-c1ccccc1
inactive: dose: 100.0 mg/kg/injection, schedule: Q01DX001 (ip), vehicle: other 94 % of control | dose: 200.0 mg/kg/injection, schedule: Q01DX001 (ip), vehicle: other 96 % of control | dose: 400.0 mg/kg/injection, schedule: Q01DX001 (ip), vehicle: other 94 % of control

CC(=O)C(=Cc1ccc(Cl)c(Cl)c1)C(C)=O
inactive: [8] 100 % of control | [9] 96 % of control | [2] 96 % of control | [3] 86 % of control

Nc1nc(CCl)nc(Nc2ccccc2)n1
inactive: [8] 105 % of control | [9] 104 % of control | [10] 86 % of control | [2] 98 % of control

O=c1[nH]cc(S(=O)(=O)Nc2ccccc2)c(=O)[nH]1
inactive: dose: 25.0 mg/kg/injection, schedule: Q01DX001 (ip), vehicle: saline with Tween-80 106 % of control | dose: 50.0 mg/kg/injection, schedule: Q01DX001 (ip), vehicle: saline with Tween-80 103 % of control | dose: 100.0 mg/kg/injection, schedule: Q01DX001 (ip), vehicle: saline with Tween-80 103 % of control

O=C1OC(=O)C2C3CC(C12)C1C2C=CC(C2)C31 (centres undefined)
inactive: dose: 100.0 mg/kg/injection, schedule: Q04DX003 (ip), vehicle: saline with Tween-80 91 % of control | dose: 200.0 mg/kg/injection, schedule: Q04DX003 (ip), vehicle: saline with Tween-80 95 % of control | dose: 400.0 mg/kg/injection, schedule: Q04DX003 (ip), vehicle: saline with Tween-80 103 % of control

Cc1ccc(Cl)c(C(=O)C(Br)C(Br)c2ccccc2)c1 (centres undefined)
inactive: dose: 12.5 mg/kg/injection, schedule: Q01DX009 (ip), vehicle: saline with Tween-80 100 % of control | dose: 25.0 mg/kg/injection, schedule: Q01DX009 (ip), vehicle: saline with Tween-80 100 % of control | dose: 50.0 mg/kg/injection, schedule: Q01DX009 (ip), vehicle: saline with Tween-80 94 % of control and 100 % of control

CC1(C)C=CN(c2ccc(Cl)cc2)C(=O)O1
inactive: dose: 100.0 mg/kg/injection, schedule: Q04DX002 (ip), vehicle: gum acacia 103 % of control | dose: 200.0 mg/kg/injection, schedule: Q04DX002 (ip), vehicle: gum acacia 97 % of control | dose: 400.0 mg/kg/injection, schedule: Q04DX002 (ip), vehicle: gum acacia 87 % of control

CC1SCC(=O)CS1
inactive: [11] 93 % of control | [9] 91 % of control | [12] 96 % of control | [2] 94 % of control | dose: 400.0 mg/kg/injection, schedule: Q01DX001 (ip), vehicle: Klucel (hydroxypropylcellulose) (HPC) 96 % of control | [3] 97 % of control

CCCCCCCCCCCCCCCCOc1ccc(C(=O)O)cc1NC(=O)CC(C)=O
inactive: [9] 92 % of control | [2] 95 % of control | [3] 92 % of control

COc1ccc(/C=C/c2cnnc3ccccc23)cc1OC
inactive: [11] 113 % of control | [12] 98 % of control

Nc1c(Br)cc(Br)cc1Br
inactive: [8] 96 % of control | [9] 106 % of control | [10] 96 % of control | [2] 92 % of control | dose: 400.0 mg/kg/injection, schedule: Q01DX009 (ip), vehicle: Klucel (hydroxypropylcellulose) (HPC) 98 % of control | [3] 97 % of control

O=P1(Nc2ccc(Cl)cc2)OCC2(CO1)COP(=O)(Nc1ccc(Cl)cc1)OC2 (centres undefined)
inactive: [4] 98 % of control | [5] 93 % of control | [6] 101 % of control | [7] 117 % of control

C(=N/N=C(N/N=C/c1cccs1)N/N=C/c1cccs1)/c1cccs1
inactive: dose: 15.0 mg/kg/injection, schedule: Q01DX Z (ip), vehicle: carboxymethylcellulose (CMC) 97 % of control | dose: 30.0 mg/kg/injection, schedule: Q01DX Z (ip), vehicle: carboxymethylcellulose (CMC) 89 % of control | dose: 60.0 mg/kg/injection, schedule: Q01DX Z (ip), vehicle: carboxymethylcellulose (CMC) 97 % of control | dose: 120.0 mg/kg/injection, schedule: Q01DX Z (ip), vehicle: carboxymethylcellulose (CMC) 95 % of control and 97 % of control | dose: 240.0 mg/kg/injection, schedule: Q01DX Z (ip), vehicle: carboxymethylcellulose (CMC) 97 % of control | dose: 240.0 mg/kg/injection, schedule: Q01DX Z (oral), vehicle: carboxymethylcellulose (CMC) 107 % of control | dose: 480.0 mg/kg/injection, schedule: Q01DX Z (ip), vehicle: carboxymethylcellulose (CMC) 94 % of control | dose: 480.0 mg/kg/injection, schedule: Q01DX Z (oral), vehicle: carboxymethylcellulose (CMC) 107 % of control | dose: 960.0 mg/kg/injection, schedule: Q01DX Z (oral), vehicle: carboxymethylcellulose (CMC) 105 % of control | dose: 1920.0 mg/kg/injection, schedule: Q01DX Z (oral), vehicle: carboxymethylcellulose (CMC) 111 % of control

O=Nc1ccc(O)c2ncccc12
inactive: [9] 92 % of control | [2] 99 % of control

C/C(=C/C(=O)O)C(=O)Nc1cccc2c(NC(=O)/C(C)=C/C(=O)O)cccc12
inactive: dose: 100.0 mg/kg/injection, schedule: Q01DX001 (ip), vehicle: carboxymethylcellulose (CMC) 95 % of control | dose: 200.0 mg/kg/injection, schedule: Q01DX001 (ip), vehicle: carboxymethylcellulose (CMC) 96 % of control | dose: 400.0 mg/kg/injection, schedule: Q01DX001 (ip), vehicle: carboxymethylcellulose (CMC) 96 % of control

NC(=O)C1(NC2CCCCC2)CCN(Cc2ccccc2)CC1
inactive: dose: 50.0 mg/kg/injection, schedule: Q01DX009 (ip), vehicle: gum acacia 100 % of control | dose: 100.0 mg/kg/injection, schedule: Q01DX009 (ip), vehicle: gum acacia 100 % of control | dose: 100.0 mg/kg/injection, schedule: Q04DX003 (ip), vehicle: gum acacia 96 % of control | dose: 200.0 mg/kg/injection, schedule: Q01DX009 (ip), vehicle: gum acacia 93 % of control | dose: 200.0 mg/kg/injection, schedule: Q04DX003 (ip), vehicle: gum acacia 96 % of control

CCCCCC(/C=N\NC(=O)CCCC(=O)N/N=C/C(=C/c1ccccc1)CCCCC)=C\c1ccccc1
inactive: [4] 89 % of control | [5] 95 % of control | [6] 97 % of control | [7] 89 % of control
